One data set concerns LNCaP C4-2B. Briefly: Antiproliferative activity against human LNCaP C4-2B cells assessed as inhibition of cell growth by Celltiter-Glo assay. It counts as functional, cell-based. In general terms: Cellular ATP, detected with luciferase, serves as a proxy for viable cell number.
Data set [1] concerns the target T1, CREB-binding protein (Homo sapiens, UniProt Q92793). The note with it: dose 200.0 µM, time 30.0 min.
Target sequence in this assay (Q92793 2-2442 limits assumed): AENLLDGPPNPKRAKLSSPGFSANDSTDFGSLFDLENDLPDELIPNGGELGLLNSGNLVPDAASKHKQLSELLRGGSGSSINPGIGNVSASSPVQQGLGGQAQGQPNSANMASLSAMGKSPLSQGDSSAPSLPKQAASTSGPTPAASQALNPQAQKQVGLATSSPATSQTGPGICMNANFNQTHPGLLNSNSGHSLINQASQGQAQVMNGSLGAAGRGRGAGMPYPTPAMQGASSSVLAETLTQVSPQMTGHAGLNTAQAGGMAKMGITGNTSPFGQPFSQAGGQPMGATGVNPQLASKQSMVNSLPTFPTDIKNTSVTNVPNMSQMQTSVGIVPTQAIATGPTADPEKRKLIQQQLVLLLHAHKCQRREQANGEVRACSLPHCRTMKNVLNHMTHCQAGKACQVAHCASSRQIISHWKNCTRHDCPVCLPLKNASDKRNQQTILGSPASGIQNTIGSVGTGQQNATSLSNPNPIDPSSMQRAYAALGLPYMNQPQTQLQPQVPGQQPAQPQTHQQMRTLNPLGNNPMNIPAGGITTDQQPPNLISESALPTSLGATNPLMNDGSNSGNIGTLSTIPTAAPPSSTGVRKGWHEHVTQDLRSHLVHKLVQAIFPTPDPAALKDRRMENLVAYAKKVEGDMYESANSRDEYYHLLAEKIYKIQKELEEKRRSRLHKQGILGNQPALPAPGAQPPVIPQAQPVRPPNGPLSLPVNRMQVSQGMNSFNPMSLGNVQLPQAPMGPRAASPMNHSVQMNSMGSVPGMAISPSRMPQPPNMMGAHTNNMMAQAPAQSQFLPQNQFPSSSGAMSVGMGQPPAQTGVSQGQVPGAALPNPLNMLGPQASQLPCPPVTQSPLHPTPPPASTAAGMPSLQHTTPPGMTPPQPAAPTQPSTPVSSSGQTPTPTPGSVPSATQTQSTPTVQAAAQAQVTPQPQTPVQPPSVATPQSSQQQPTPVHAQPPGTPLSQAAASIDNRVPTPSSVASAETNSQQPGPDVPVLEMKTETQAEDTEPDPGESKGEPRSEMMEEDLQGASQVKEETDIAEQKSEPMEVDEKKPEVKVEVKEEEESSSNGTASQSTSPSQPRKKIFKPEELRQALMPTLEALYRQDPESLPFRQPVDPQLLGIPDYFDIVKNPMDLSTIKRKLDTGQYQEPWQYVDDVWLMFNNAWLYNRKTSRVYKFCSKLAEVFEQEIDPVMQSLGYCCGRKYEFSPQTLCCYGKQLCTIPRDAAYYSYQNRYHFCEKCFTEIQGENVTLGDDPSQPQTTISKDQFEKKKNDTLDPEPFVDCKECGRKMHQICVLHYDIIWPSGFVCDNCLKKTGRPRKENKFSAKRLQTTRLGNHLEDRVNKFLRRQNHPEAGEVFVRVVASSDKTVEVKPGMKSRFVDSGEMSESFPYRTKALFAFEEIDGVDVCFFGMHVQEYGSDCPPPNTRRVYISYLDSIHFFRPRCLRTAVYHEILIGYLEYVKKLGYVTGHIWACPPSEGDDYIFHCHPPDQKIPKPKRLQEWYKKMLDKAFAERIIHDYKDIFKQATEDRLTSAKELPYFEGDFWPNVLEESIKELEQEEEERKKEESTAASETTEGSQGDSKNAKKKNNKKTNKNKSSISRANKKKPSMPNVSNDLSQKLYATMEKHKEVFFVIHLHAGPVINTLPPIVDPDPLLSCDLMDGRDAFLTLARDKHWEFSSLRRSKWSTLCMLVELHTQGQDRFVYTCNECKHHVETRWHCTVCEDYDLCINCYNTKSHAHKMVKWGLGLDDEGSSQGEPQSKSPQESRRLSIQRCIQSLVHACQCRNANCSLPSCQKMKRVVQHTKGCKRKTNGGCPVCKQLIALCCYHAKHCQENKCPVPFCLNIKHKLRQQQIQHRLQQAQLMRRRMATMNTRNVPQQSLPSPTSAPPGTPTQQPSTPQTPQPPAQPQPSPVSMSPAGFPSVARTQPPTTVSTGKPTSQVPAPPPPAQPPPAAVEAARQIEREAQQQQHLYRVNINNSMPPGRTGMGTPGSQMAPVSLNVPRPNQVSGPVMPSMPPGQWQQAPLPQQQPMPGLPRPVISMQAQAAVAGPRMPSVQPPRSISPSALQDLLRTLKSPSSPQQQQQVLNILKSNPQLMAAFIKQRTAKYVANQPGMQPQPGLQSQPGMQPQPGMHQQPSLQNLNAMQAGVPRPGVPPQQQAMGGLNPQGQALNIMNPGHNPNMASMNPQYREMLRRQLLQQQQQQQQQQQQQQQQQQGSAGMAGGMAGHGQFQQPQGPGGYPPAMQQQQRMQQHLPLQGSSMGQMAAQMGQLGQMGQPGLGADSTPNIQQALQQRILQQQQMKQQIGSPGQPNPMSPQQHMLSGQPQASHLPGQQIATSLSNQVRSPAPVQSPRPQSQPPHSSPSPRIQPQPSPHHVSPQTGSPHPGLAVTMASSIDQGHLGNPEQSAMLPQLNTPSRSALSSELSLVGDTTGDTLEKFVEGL
In data set [2] the target is T1, CREB-binding protein. Kind of data set: Inhibition of His6-tagged human CBP bromodomain (1081 to 1197 residues) expressed in Escherichia coli BL21 (DE3) incubated for 30 mins by HTRF assay. In general terms: Time-resolved FRET reads energy transfer from a long-lived donor to a nearby acceptor.
Target sequence in this assay (Q92793 whole entry, the tested form may be a part): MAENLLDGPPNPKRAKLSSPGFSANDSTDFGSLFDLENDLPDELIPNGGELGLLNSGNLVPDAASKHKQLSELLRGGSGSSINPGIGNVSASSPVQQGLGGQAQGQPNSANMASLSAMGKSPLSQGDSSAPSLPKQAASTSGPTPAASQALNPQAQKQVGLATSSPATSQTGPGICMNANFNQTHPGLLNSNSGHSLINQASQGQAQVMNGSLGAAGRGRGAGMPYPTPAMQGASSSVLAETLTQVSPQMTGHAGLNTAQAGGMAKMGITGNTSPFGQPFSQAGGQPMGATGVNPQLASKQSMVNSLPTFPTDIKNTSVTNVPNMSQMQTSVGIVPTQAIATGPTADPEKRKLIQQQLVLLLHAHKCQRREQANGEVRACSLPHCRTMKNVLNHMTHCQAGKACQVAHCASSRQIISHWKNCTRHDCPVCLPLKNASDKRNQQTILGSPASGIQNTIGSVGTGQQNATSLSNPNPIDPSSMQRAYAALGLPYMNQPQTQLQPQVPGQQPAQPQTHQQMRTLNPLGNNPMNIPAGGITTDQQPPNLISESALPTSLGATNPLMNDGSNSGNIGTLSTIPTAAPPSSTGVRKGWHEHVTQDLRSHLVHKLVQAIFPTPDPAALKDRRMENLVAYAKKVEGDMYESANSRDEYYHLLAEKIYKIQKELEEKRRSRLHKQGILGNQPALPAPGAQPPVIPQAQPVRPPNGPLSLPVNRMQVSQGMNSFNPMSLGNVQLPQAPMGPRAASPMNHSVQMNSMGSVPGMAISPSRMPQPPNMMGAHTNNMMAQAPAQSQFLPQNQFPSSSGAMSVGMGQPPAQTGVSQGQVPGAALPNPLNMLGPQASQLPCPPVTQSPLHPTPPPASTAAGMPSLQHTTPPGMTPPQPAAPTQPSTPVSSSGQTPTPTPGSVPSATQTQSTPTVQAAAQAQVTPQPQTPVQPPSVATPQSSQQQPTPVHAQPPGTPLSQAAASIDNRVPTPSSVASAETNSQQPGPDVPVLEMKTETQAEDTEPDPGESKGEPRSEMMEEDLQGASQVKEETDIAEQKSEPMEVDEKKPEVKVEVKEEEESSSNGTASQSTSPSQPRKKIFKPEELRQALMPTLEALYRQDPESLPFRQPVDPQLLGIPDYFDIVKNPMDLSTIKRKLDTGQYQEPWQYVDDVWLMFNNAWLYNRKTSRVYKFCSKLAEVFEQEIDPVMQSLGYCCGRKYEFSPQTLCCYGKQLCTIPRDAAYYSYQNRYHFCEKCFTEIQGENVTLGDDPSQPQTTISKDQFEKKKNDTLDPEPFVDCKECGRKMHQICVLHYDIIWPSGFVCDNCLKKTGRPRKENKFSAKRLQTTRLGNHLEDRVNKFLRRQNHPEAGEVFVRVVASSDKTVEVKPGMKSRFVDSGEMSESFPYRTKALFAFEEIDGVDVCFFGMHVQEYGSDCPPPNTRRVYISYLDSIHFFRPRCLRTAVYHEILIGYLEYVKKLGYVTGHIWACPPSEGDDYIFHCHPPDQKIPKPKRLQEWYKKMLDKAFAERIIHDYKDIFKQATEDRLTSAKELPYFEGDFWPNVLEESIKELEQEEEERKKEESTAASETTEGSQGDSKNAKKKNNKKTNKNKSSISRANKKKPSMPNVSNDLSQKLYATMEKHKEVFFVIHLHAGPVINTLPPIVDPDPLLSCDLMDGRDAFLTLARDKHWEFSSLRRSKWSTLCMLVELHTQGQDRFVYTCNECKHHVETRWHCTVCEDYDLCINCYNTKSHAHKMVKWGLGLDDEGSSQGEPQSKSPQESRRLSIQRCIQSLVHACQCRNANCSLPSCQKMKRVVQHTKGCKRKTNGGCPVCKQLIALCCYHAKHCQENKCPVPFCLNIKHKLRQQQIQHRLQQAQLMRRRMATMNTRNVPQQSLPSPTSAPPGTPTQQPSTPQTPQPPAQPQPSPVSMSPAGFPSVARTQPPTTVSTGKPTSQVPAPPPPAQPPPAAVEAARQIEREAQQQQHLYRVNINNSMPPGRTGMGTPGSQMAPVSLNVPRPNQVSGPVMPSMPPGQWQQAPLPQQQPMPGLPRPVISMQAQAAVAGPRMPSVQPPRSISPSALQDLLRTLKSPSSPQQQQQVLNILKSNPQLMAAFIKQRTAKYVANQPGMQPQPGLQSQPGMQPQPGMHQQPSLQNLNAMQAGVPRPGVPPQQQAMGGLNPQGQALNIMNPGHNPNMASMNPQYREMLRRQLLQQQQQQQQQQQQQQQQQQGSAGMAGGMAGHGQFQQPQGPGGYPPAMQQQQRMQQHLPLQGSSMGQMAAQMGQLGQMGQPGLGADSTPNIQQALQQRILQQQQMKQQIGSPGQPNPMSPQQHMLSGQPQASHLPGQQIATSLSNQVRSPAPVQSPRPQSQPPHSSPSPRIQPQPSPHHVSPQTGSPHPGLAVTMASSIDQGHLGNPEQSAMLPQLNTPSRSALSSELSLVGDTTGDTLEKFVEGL
The nature of data set [3]: Half life in rat liver microsomes at 1 uM incubated for 45 mins in presence of NADPH by LC-MS/MS analysis. It counts as ADME, Microsome.
The nature of data set [4]: Intrinsic clearance in rat liver microsomes at 1 uM incubated for 45 mins in presence of NADPH by LC-MS/MS analysis. As to conditions: read-out: CLH. It counts as ADME, Microsome.
Data set [5] can be described thus: Hepatic clearance in rat liver microsomes at 1 uM incubated for 45 mins in presence of NADPH by LC-MS/MS analysis. In kind it is ADME, Microsome. (Microsomes from liver hold many membrane-bound enzymes, among them those of drug oxidation.)
Data set [6] has as its target T1, CREB-binding protein. Kind of data set: Binding affinity to His6-tagged human CBP bromodomain (1081 to 1197 residues) expressed in Escherichia coli BL21 (DE3) assessed as dissociation constant by ITC analysis.
Target sequence in this assay (Q92793 whole entry, the tested form may be a part): as above
Data set [7] addresses T2, Bromodomain-containing protein 4 (Homo sapiens, UniProt O60885). As to conditions: dose 200.0 µM, time 30.0 min.
Data set [8] has as its target T3, Bromodomain-containing protein 9 (Homo sapiens) (UniProt Q9H8M2).
T3 sequence (whole entry): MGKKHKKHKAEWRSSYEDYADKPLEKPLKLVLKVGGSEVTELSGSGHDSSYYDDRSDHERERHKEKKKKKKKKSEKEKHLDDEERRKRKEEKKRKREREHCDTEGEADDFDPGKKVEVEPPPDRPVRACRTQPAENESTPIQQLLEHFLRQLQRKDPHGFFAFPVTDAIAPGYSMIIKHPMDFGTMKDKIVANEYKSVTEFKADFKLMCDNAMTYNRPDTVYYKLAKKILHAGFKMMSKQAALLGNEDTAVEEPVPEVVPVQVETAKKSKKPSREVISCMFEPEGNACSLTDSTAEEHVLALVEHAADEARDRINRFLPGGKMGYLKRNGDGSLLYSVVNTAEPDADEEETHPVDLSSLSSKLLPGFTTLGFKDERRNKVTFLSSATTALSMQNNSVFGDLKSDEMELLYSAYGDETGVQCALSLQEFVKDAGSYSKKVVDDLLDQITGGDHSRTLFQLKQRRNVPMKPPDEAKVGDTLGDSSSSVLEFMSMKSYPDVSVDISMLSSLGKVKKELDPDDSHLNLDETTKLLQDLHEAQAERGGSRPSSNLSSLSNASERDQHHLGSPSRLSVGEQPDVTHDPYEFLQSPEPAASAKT
The note with it: dose 200.0 µM, time 30.0 min.

Data set [9] concerns the target T4, Bromodomain-containing protein 3 (Homo sapiens, UniProt Q15059). The note with it: dose 200.0 µM, time 30.0 min.
Data set [10] concerns the target Histone acetyltransferase p300 (Homo sapiens) (UniProt Q09472). As to conditions: dose 200.0 µM, time 30.0 min.
Data set [11] has as its target SWI/SNF-related matrix-associated actin-dependent regulator of chromatin subfamily A member 2 (Homo sapiens) (UniProt P51531). As to conditions: dose 200.0 µM, time 30.0 min.
In data set [12] the target is Chromatin remodeling regulator CECR2 (Homo sapiens) (UniProt Q9BXF3). The note with it: dose 200.0 µM, time 30.0 min.
Data set [13] has as its target Bromodomain adjacent to zinc finger domain protein 2B (Homo sapiens) (UniProt Q9UIF8). The note with it: dose 200.0 µM, time 30.0 min.
In data set [14] the target is T2, Bromodomain-containing protein 4. The note with it: dose 200.0 µM, time 30.0 min. This is another data set of the same source.
In data set [15] the target is T5, Bromodomain-containing protein 2 (Homo sapiens, UniProt P25440). As to conditions: dose 200.0 µM, time 30.0 min.
The test system of the next data set is LNCaP. Briefly: Antiproliferative activity against human LNCaP cells assessed as cell growth inhibition by Celltiter-Glo assay. It counts as functional, cell-based.
Data set [16] deals with T4, Bromodomain-containing protein 3. The note with it: dose 200.0 µM, time 30.0 min. This is another data set of the same source.
Data set [17] addresses T6, Bromodomain testis-specific protein (Homo sapiens, UniProt Q58F21). The note with it: dose 200.0 µM, time 30.0 min.
The next data set relates to CWR22R. Kind of data set: Antiproliferative activity against human 22Rv1 cells assessed as cell growth inhibition by Celltiter-Glo assay. It counts as functional, cell-based.
In data set [18] the target is T5, Bromodomain-containing protein 2. As to conditions: dose 200.0 µM, time 30.0 min. This is another data set of the same source.
Data set [19] concerns the target Histone acetyltransferase KAT2B (Homo sapiens) (UniProt Q92831). As to conditions: dose 200.0 µM, time 30.0 min.
Data set [20] addresses PH-interacting protein (Homo sapiens) (UniProt Q8WWQ0). As to conditions: dose 200.0 µM, time 30.0 min.
The target of data set [21] is T6, Bromodomain testis-specific protein. As to conditions: dose 200.0 µM, time 30.0 min. The source holds these as a separate data set.
Data set [22] in a line: Metabolic stability in rat liver microsomes assessed as parent compound remaining at 1 uM incubated for 45 mins in presence of NADPH by LC-MS/MS analysis. It counts as ADME, Microsome. As to conditions: read-out: Stability.
A further data set is described as follows: in vitro. The note with it: rat, liver microsomes.

Description for in vitro: Hepatic extraction ratio in rat liver microsomes at 1 uM incubated for 45 mins in presence of NADPH by LC-MS/MS analysis

In the case of `COC(=O)c1cc(NC(=O)c2cc(C(C)=O)n3ccc(OC)cc23)c(F)c(-c2cnn(C)c2)c1`, the concentration for half-maximal inhibition (IC50) (as a rule, the concentration that gives 50% inhibition) in the data set with LNCaP C4-2B is above 50000 nM. In addition, the ΔTm – broadly, the change in melting temperature against a reference sample – on CREB-binding protein [1] is 3.3 °C.

With `CCc1ccn2c(C(C)=O)cc(C(=O)Nc3cc(CO)cc(-c4cnn(C)c4)c3F)c2c1`, the IC50 at CREB-binding protein [2] amounted to 21.8 nM; with LNCaP C4-2B, 50000 nM. For the same molecule, on CREB-binding protein [1], the ΔTm worked out at 6.3 °C.

On to `CC(C)C(=O)c1cc(C(=O)Nc2cc(CO)cc(-c3cnn(C)c3)c2F)c2cc(O)ccn12`, for which, in the data set on LNCaP C4-2B, the IC50 turned out to be 37000 nM. Besides, the shift in melting temperature (ΔTm) on CREB-binding protein [1] is 1.8 °C.

With `O=C(c1ccc(F)cc1)C1CCN(CCn2c(=O)[nH]c3ccccc3c2=O)CC1` [KETANSERIN], the half-life – broadly, how long it takes for the measured level to halve – at 1 µM in data set [3] stood at 15.6 min. Also, the CLint scaled at 1 µM in [4] was 159 mL/min/kg. The CLhep predicted at 1 µM in [5] is 41 mL/min/kg.

With `CNC(=O)c1cc(C(=O)Nc2cc(CO)cc(-c3cnn(C)c3)c2F)c2cc(O)ccn12`, the ΔTm at CREB-binding protein [1] turned out to be 2.4 °C.

Take `CC(=O)c1cc(C(=O)Nc2cc(CO)cc(-c3cnn(C)c3)c2F)c2cc(O)ccn12`: the IC50 in the data set on LNCaP C4-2B was 34200 nM. Further, the Kd (in general, a measure of binding affinity in units of concentration) on CREB-binding protein [6] came to 44 nM. On CREB-binding protein [1], the ΔTm amounted to 12.6 °C.

Regarding `C[C@@H]1CC(=O)Nc2cccc(-c3ccc4c(c3)c(-c3cnn(C)c3)nn4C)c2N1`, the thermal shift (ΔTm) in data set [7] was 0 °C; in data set [8], 7 °C; in data set [9] it was 1.5 °C; in data set [10] it was 15.5 °C; in data set [11], -0.3 °C; in data set [12], -0.2 °C. The ΔTm is -0.2 °C in data set [13]; 5 °C in data set [14]; 1 °C in data set [15]; 1 °C in data set [16]; 1.8 °C in data set [17]; 1.3 °C in [18]. In addition, the ΔTm on CREB-binding protein [1] is 14.3 °C; in [19], -0.2 °C; in data set [20] it was 0 °C; in [21], -0.5 °C. The IC50 on CREB-binding protein [2] came out at 14 nM; in the data set on LNCaP, 650 nM; with LNCaP C4-2B it was 3350 nM; with CWR22R, 3130 nM. Further, the Kd on CREB-binding protein [6] came to 68 nM.

On to `COc1ccn2c(C(C)=O)cc(C(=O)Nc3cc(CO)cc(-c4cnn(C)c4)c3F)c2c1`, for which the values for the half-maximal inhibitory concentration (IC50) on CREB-binding protein [2] and with LNCaP C4-2B were 12 nM and 9570 nM, respectively. The ΔTm on CREB-binding protein [1] amounted to 8.4 °C.

`CCC(=O)c1cc(C(=O)Nc2cc(CO)cc(-c3cnn(C)c3)c2F)c2cc(O)ccn12`: the values for the IC50 on CREB-binding protein [2] and in the data set with LNCaP C4-2B were 78.5 nM and 34900 nM, respectively. Moreover, the ΔTm on CREB-binding protein [1] was 11.1 °C.

Turning to `COc1ccc2c(c1)c(C(=O)Nc1cc(C(=O)O)cc(-c3cnn(C)c3)c1F)cn2C(C)=O`, the half-life at 1 µM in [3] amounted to 13.1 min. Further, the IC50 at CREB-binding protein [2] came to 178 nM. Moreover, in data set [4], the CLint scaled at 1 µM turned out to be 189 mL/min/kg. Further, the dissociation constant (Kd) at CREB-binding protein [6] is 165 nM. Also, in [5], the CLhep predicted at 1 µM is 42.7 mL/min/kg. In addition, the remaining at 0.75 h, 1 µM in [22] stood at 7.7%. For the same molecule, in “in vitro”, the hepatic extraction ratio at 0.75 h, 1 µM turned out to be 0.774.

On to `COc1ccn2c(C(C)=O)cc(C(=O)Nc3cc(C(N)=O)cc(-c4cnn(C)c4)c3F)c2c1`, for which the ΔTm on CREB-binding protein [1] stood at 2.4 °C.

Regarding `CC(=O)c1cc(C(=O)Nc2cc(CO)cc(-c3cnn(C)c3)c2F)c2cc(C)ccn12`, the IC50 is 14 nM on CREB-binding protein [2] and above 50000 nM in the data set with LNCaP C4-2B. Also, the ΔTm on CREB-binding protein [1] turned out to be 6.3 °C.

As for `COc1ccn2c(C(C)=O)cc(C(=O)Nc3cc(C(=O)O)cc(-c4cnn(C)c4)c3F)c2c1`, in [3], the half-life at 1 µM was above 120 min. Further, the IC50 at CREB-binding protein [2] came to 9.8 nM. For the same molecule, the Kd at CREB-binding protein [6] was determined as 30 nM. Besides, the shift in melting temperature (ΔTm) on CREB-binding protein [1] came to 11.4 °C. For the same molecule, the remaining at 0.75 h, 1 µM in data set [22] was found to be 100%.

`COc1ccn2c(C(C)=O)cc(C(=O)Nc3cc(Cl)cc(-c4cnn(C)c4)c3F)c2c1`: the IC50 at CREB-binding protein [2] was found to be 55.2 nM; in the data set on LNCaP C4-2B, 9280 nM. Further, at CREB-binding protein [1], the ΔTm amounted to 6 °C.

These data come from ChEMBL document CHEMBL5154675, “Design, Synthesis, and Biological Evaluation of 1-(Indolizin-3-yl)ethan-1-ones as CBP Bromodomain Inhibitors for the Treatment of Prostate Cancer” (J Med Chem, 2022).
